Paper PMC12351382, “Fibrinography and thrombography (thrombodynamics-4D) in atrial fibrillation assessment of direct oral anticoagulants in geriatrics patients aged 80 years and older receiving direct oral anticoagulant therapy” (Research and Practice in Thrombosis and Haemostasis, 2025)

Legend:
fibrin clot formation [1] = test: Thrombodynamics-4D fibrinography in pooled normal plasma (Cryocheck) spiked with DOACs; assay type: biochemical, human; conditions: 0 to 1000 nM, mainly at low DOAC concentrations
Procedure: (§1) Frozen pooled normal plasma samples (Cryocheck-Cryopep) were spiked with increasing concentrations of DOACs (0-450 ng/mL), as previously described. […] were kindly provided by Bristol Myers Squibb/Pfizer, Bayer Healthcare, and Boehringer Ingelheim, respectively.
The TD-4D assay was performed centrally using the Thrombodynamics analyzer system (Hemacore, Diapharma) with the TD-4D PLS dedicated kit (Hemacore, Diapharma). The system simultaneously measures spatiotemporal parameters of fibrin clot formation (fibrinography) and TG process (thrombography) in a thin layer of unstirred plasma. Briefly, 120 μL of platelet-poor plasma is added to a microcuvette containing corn trypsin inhibitor to prevent contribution of contact phase activation, then 5 μL of phospholipid solution (manufacturer’s reagent) is added. […] The process of fibrin clot formation is recorded in a time-lapse video-microscopy mode using a dark-field light scattering method. […] Clot growth is detected with red light scattering, while AMC fluorescence is detected with UV. Scattered red light and fluorescence passing through the macro lens are recorded by a charge-coupled device system. […]
(§2) The following fibrinography parameters were recorded (see Supplementary Table 1): (i) lag time (Tlag, minutes); (ii) initial rate of clot growth (Vi, μm/min); (iii) rate of clot growth (V, μm/min); (iv) clot size (CS, μm) measured at 30 minutes; (v) clot density (D, arbitrary units); (vi) time to spontaneous clotting (Tsp, minutes). The following thrombography parameters (at the near-activator area) were recorded (see Supplementary Table 1): (i) Tlag (minutes); (ii) time to thrombin peak (minutes); (iii) maximal thrombin concentration (ie, thrombin peak height, Cmax_ATG, AU/L); (iv) endogenous thrombin potential (ETP_ATG, AU⋅min/L); (v) stationary amplitude of moving peak of thrombin (Ast, AU/L); (vi) rate of thrombin peak propagation (μm/min; see Supplementary Videos 1–3).

fibrin clot formation [2] = test: Thrombodynamics-4D fibrinography in plasma samples from ADAGE patients on DOACs; assay type: in vivo, human; conditions: for CS (clot size at 30 minutes), median (IQR) / CS (clot size at 30 minutes), range / D (clot density), median (IQR) / D (clot density), range / Fibrinography Tlag (lag time), median (IQR) / Fibrinography Tlag (lag time), range / Initial rate of clot growth (Vi), median (IQR) / Initial rate of clot growth (Vi), range / Time to Tsp (spontaneous clotting), median (IQR) / Time to Tsp (spontaneous clotting), range: ADAGE patients, reduced dose (regimens as E1)
From the text: (§3) ADAGE is an academic, prospective, observational multicenter study (NCT 02464488; for details, see Foulon-Pinto et al.). We recruited hospitalized patients from the university hospital’s geriatric department (Assistance Publique-Hôpitaux de Paris, Paris, France). […] The DOAC dose regimen was at the discretion of the physician. Exclusion criteria included any acute, unstable comorbid condition or an estimated life expectancy of a few weeks. Sampling (see below) and last DOAC intake times were recorded on a standardized request form. Sampling time points were at the discretion of the physicians over a period of 20 days following inclusion. Time points were classified according to the time elapsed from the last oral intake (T, hours) for patients receiving rivaroxaban. T1 to T4 corresponded to peak time (Tmax), and T20 to T24 corresponded to trough (Tmin). […] Physicians prospectively collected demographic, clinical, and laboratory data (including creatinine clearance [CrCl] calculated with the Cockcroft–Gault formula). The study was approved by the institutionnel Ethics Committee (Comité consultatif de protection des personnes pour la recherche biomédicale–Île-de-France-6–number 15.074bis). All participants gave written informed consent to participate in the study. Only patients for whom remaining plasma aliquots were available were included in the present study.
(§4) Tubes were sent to each centre’s laboratory within 2 hours after sampling and immediately double-centrifuged for 15 minutes at 2000 × g at 15 to 22 °C to obtain platelet-poor plasma. Plasma samples (500 μL aliquots) were stored at −80 °C prior to shipment on dry ice for central analysis (Haematology Laboratory, Hôpital Lariboisière). Plasma samples were thawed for 3 to 5 minutes in a 37 °C water bath just before testing.
(§5) The TD-4D assay was performed centrally using the Thrombodynamics analyzer system (Hemacore, Diapharma) with the TD-4D PLS dedicated kit (Hemacore, Diapharma). The system simultaneously measures spatiotemporal parameters of fibrin clot formation (fibrinography) and TG process (thrombography) in a thin layer of unstirred plasma. Briefly, 120 μL of platelet-poor plasma is added to a microcuvette containing corn trypsin inhibitor to prevent contribution of contact phase activation, then 5 μL of phospholipid solution (manufacturer’s reagent) is added. After incubation for 15 minutes at 37 °C in the Thrombodynamics device, the mixture is transferred to a second microcuvette containing calcium ions, and then immediately transferred to the measurement cuvette. Finally, the activator insert, whose surface is coated with immobilized tissue factor (100 pmol/m^2), is then transferred to the cuvette. The process of fibrin clot formation is recorded in a time-lapse video-microscopy mode using a dark-field light scattering method. Simultaneously, the system monitors TG by fluorimetry, based on the ability of thrombin to cleave a fluorogenic substrate, 7-amino-4-methylcoumarin (AMC) bound to a short amino acid sequence (Arg-Gly-Gly). The rate of AMC formation is proportional to local thrombin concentration. The microcuvette is maintained at 37 °C and is illuminated with red (625 nm) or ultra-violet (365 nm) light emitting diodes. Clot growth is detected with red light scattering, while AMC fluorescence is detected with UV. Scattered red light and fluorescence passing through the macro lens are recorded by a charge-coupled device system. Images under red and blue light are acquired once per minute. The whole analysis lasts 1 hour. The Thrombodynamics software (Hemacore, Diapharma) calculates parameters of spatiotemporal dynamics of fibrin clot formation and TG [40, 46]. […]

[3] = Plasma DOAC concentration in ADAGE patients (chromogenic anti-FXa assay for rivaroxaban and apixaban; anti-FIIa Hemoclot assay for dabigatran); assay type: in vivo, human; conditions: for DOAC concentration, median (IQR): ADAGE patients ≥80 y, reduced dose: rivaroxaban 15 mg once daily, apixaban 2.5 mg twice daily, dabigatran 110 mg twice daily; for DOAC concentration, range: ADAGE patients, reduced dose (regimens as E1)
From the text: as §3, §4
Dedicated calibrations and controls were used. The lower limit of quantification was 20 ng/mL for the 3 assays.

thrombin generation [4] = test: Thrombodynamics-4D thrombography in plasma samples from ADAGE patients on DOACs; assay type: in vivo, human; conditions: for ETP (endogenous thrombin potential, ETP_ATG), median (IQR) / ETP (endogenous thrombin potential, ETP_ATG), range / Thrombin peak height (Cmax_ATG), median (IQR) / Thrombin peak height (Cmax_ATG), range / Thrombography Tlag (Lag_ATG), median (IQR) / Thrombography Tlag (Lag_ATG), range / Time to peak (Tmax_ATG), median (IQR) / Time to peak (Tmax_ATG), range: ADAGE patients, reduced dose (regimens as E1)
From the text: as §3, §4, §5

thrombin generation [5] = test: Thrombodynamics-4D thrombography in pooled normal plasma (Cryocheck) spiked with DOACs; assay type: biochemical, human
Procedure: as §1
as §5, with “minute.” for “minute. The whole analysis lasts 1 hour. The Thrombodynamics software (Hemacore, Diapharma) calculates parameters of spatiotemporal dynamics of fibrin clot formation and TG [40, 46].”
as §2

[6] = all ADAGE patient samples, Spearman
[7] = univariate analysis, Tmax, line marked Halving
[8] = univariate analysis, Tmin, line marked Halving
[9] = all ADAGE patient samples, any time point and dose

- DOAC concentration, median (IQR) ([3]; Tmax (peak)): 248 (181-397) ng/mL
- DOAC concentration, range ([3]; Tmax (peak)): 64 to 676 ng/mL
- DOAC concentration, median (IQR) ([3]; Tmin (trough)): 42 (27-69) ng/mL
- DOAC concentration, range ([3]; Tmin (trough)): 20 to 149 ng/mL
- DOAC plasma concentration, lower end of range [3, 9]: < 20 ng/mL
- DOAC plasma concentration, upper end of range [3, 9]: 676 ng/mL
SMILES: O=C(NC[C@H]1CN(c2ccc(N3CCOCC3=O)cc2)C(=O)O1)c1ccc(Cl)s1 [Rivaroxaban]
- Samples in which spontaneous clotting occurred (fibrin clot formation [1]): 14%
- CS (clot size at 30 minutes), median (IQR) (fibrin clot formation [2]; Tmax (peak)): 1236 (1112-1393) μm
- CS (clot size at 30 minutes), range (fibrin clot formation [2]; Tmax (peak)): 1019-1759 μm
- D (clot density), median (IQR) (fibrin clot formation [2]; Tmax (peak)): 23,230 (20,060-28,420) a.u.
- D (clot density), range (fibrin clot formation [2]; Tmax (peak)): 14,690-33,710 a.u.
- Fibrinography Tlag (lag time), median (IQR) (fibrin clot formation [2]; Tmax (peak)): 2.0 (1.7-2.6) min
- Fibrinography Tlag (lag time), range (fibrin clot formation [2]; Tmax (peak)): 1.3 to 4.7 min
- Initial rate of clot growth (Vi), median (IQR) (fibrin clot formation [2]; Tmax (peak)): 60.6 (56.2-65.3) μm/min
- Initial rate of clot growth (Vi), range (fibrin clot formation [2]; Tmax (peak)): 45.0-84.6 μm/min
- Time to Tsp (spontaneous clotting), median (IQR) (fibrin clot formation [2]; Tmax (peak)): 18.5 (11.4-31.6) min
- Time to Tsp (spontaneous clotting), range (fibrin clot formation [2]; Tmax (peak)): 7.7 to 58.1 min
- CS (clot size at 30 minutes), median (IQR) (fibrin clot formation [2]; Tmin (trough)): 1691 (1632-1734) μm
- CS (clot size at 30 minutes), range (fibrin clot formation [2]; Tmin (trough)): 1276-2029 μm
- D (clot density), median (IQR) (fibrin clot formation [2]; Tmin (trough)): 23,940 (20,550-30,160) a.u.
- D (clot density), range (fibrin clot formation [2]; Tmin (trough)): 18,160-37,370 a.u.
- Fibrinography Tlag (lag time), median (IQR) (fibrin clot formation [2]; Tmin (trough)): 1.2 (1.0-1.4) min
- Fibrinography Tlag (lag time), range (fibrin clot formation [2]; Tmin (trough)): 0.8 to 2.1 min
- Initial rate of clot growth (Vi), median (IQR) (fibrin clot formation [2]; Tmin (trough)): 70.4 (64.9-75.8) μm/min
- Initial rate of clot growth (Vi), range (fibrin clot formation [2]; Tmin (trough)): 56.5-87.1 μm/min
- Time to Tsp (spontaneous clotting), median (IQR) (fibrin clot formation [2]; Tmin (trough)): 10.9 (7.1-23.1) min
- Time to Tsp (spontaneous clotting), range (fibrin clot formation [2]; Tmin (trough)): 3.2 to 42.3 min
- Change of CS (clot size) with increasing concentrations (fibrin clot formation [2]; all ADAGE patient samples): decreased
- Association of D (clot density) with DOAC concentration (fibrin clot formation [2]; [6]): not
- Relationship between time to spontaneous clot formation (Tsp) and DOAC levels (fibrin clot formation [2]; [6]): no relationship
- Effect of DOAC concentration at Tmax (βC.pic) on fibrinography initial velocity of clot formation (fibrin clot formation [2]; [7]): ≈ −0.001769%
- Effect of DOAC concentration at Tmin (βC.res) on fibrinography initial velocity of clot formation (fibrin clot formation [2]; [8]): ≈ 0.08094%
- ETP (endogenous thrombin potential, ETP_ATG), median (IQR) (thrombin generation [4]; Tmax (peak)): 1391 (1176-1774) AU⋅min/L
- ETP (endogenous thrombin potential, ETP_ATG), range (thrombin generation [4]; Tmax (peak)): 601-2371 AU⋅min/L
- Thrombin peak height (Cmax_ATG), median (IQR) (thrombin generation [4]; Tmax (peak)): 203 (140-268) AU/L
- Thrombin peak height (Cmax_ATG), range (thrombin generation [4]; Tmax (peak)): 64-371 AU/L
- Thrombography Tlag (Lag_ATG), median (IQR) (thrombin generation [4]; Tmax (peak)): 1.1 (0.8-1.5) min
- Thrombography Tlag (Lag_ATG), range (thrombin generation [4]; Tmax (peak)): 0.6 to 3.9 min
- Time to peak (Tmax_ATG), median (IQR) (thrombin generation [4]; Tmax (peak)): 3.1 (2.6-3.8) min
- Time to peak (Tmax_ATG), range (thrombin generation [4]; Tmax (peak)): 2.6 to 7.1 min
- ETP (endogenous thrombin potential, ETP_ATG), median (IQR) (thrombin generation [4]; Tmin (trough)): 1832 (1322-2480) AU⋅min/L
- ETP (endogenous thrombin potential, ETP_ATG), range (thrombin generation [4]; Tmin (trough)): 557-3572 AU⋅min/L
- Thrombin peak height (Cmax_ATG), median (IQR) (thrombin generation [4]; Tmin (trough)): 289 (254-422) AU/L
- Thrombin peak height (Cmax_ATG), range (thrombin generation [4]; Tmin (trough)): 132- 544 AU/L
- Thrombography Tlag (Lag_ATG), median (IQR) (thrombin generation [4]; Tmin (trough)): 0.2 (0.1-0.4) min
- Thrombography Tlag (Lag_ATG), range (thrombin generation [4]; Tmin (trough)): 0.1 to 0.9 min
- Time to peak (Tmax_ATG), median (IQR) (thrombin generation [4]; Tmin (trough)): 2.1 (1.6-2.1) min
- Time to peak (Tmax_ATG), range (thrombin generation [4]; Tmin (trough)): 1.6 to 3.1 min
- Change of ETP_ATG with increasing DOAC plasma concentrations (thrombin generation [4]; all ADAGE patient samples): decreased
- Effect of DOAC concentration at Tmax (βC.pic) on thrombography peak height (PH) (thrombin generation [4]; [7]): ≈ 0.1032%
- Effect of DOAC concentration at Tmin (βC.res) on thrombography peak height (PH) (thrombin generation [4]; [8]): ≈ 0.238%
- Change of Ast (stationary amplitude of thrombin moving peak) with increasing concentrations (thrombin generation [5]): not
